Holding throughout (type): in vivo
The test system of assay [1] is Japanese bulrush (Scirpus juncoides Roxb.). Put plainly: Test Example 1: herbicidal effect by soil application to paddy field. To be noted: paddy field soil application; active ingredient 1,000 g per 1 hectare; wettable powder added dropwise to water surface the day after sowing; examined on the 21st day after application. The method in brief:
(§1)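 Under greenhouse conditions, seeds sown on puddled paddy soil in 100 cm2 pots under 3 cm of standing water received the test compound; injury was assessed with a standard scoring scheme three weeks (day 21) after treatment.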

Assay [2] has as its system early watergrass (Echinochloa oryzicola Vasing). Described as above. To be noted: paddy field soil application; active ingredient 1,000 g per 1 hectare; wettable powder added dropwise to water surface the day after sowing; examined on the 21st day after application. The method in brief: as §1
Assay [3] has as its system heartshape false pickerelweed (Monochoria vaginalis (Burm.f.) C.Presl). The description is as above. Particulars: paddy field soil application; active ingredient 1,000 g per 1 hectare; wettable powder added dropwise to water surface the day after sowing; examined on the 21st day after application. The gist of the method: as §1
The subject of assay [4] is barnyardgrass (Echinochloa crus-galli (L.) P. Beauv. var. crus-galli). Put plainly: Test Example 2: herbicidal effect by soil application to upland field. Particulars: soil surface spray, upland field soil, 1,000 g active ingredient per hectare, 21st day after application. The gist of the method: (§2)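 Herbicidal activity was graded on a standard scale on day 21 after soil application. The covered, freshly sown pots of field soil received an aqueous wettable-powder spray delivering 1,000 g active ingredient/ha at 1,000 liters/ha and were kept in a greenhouse.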

The subject of assay [5] is green foxtail (Setaria viridis (L.) P. Beauv.). The description is as above. Particulars: soil surface spray, upland field soil, 1,000 g active ingredient per hectare, 21st day after application. The method in brief:
as §2

The test system of assay [6] is slender amaranth (Amaranthus viridis L.). The assay is described as above. Particulars: soil surface spray, upland field soil, 1,000 g active ingredient per hectare, 21st day after application. The method in brief: as §2
For assay [7], the system named is velvetleaf (Abutilon theophrasti medicus). The assay is described as above. Particulars: soil surface spray, upland field soil, 1,000 g active ingredient per hectare, 21st day after application. The method in brief: as §2
Assay [8] has as its system barnyardgrass (Echinochloa crus-galli (L.) P. Beauv. var. crus-galli). Briefly: Test Example 3: herbicidal effect by application to upland field (foliage treatment). To be noted: foliage treatment, 1,000 g active ingredient per 1 hectare, 14th day after application, greenhouse. The method in brief: (§3)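 A single foliar application of a water-diluted wettable powder, at 1,000 g of active ingredient per hectare, was made to plants raised for two weeks from seed in field soil. Herbicidal activity was judged visually after a further 14 days in the greenhouse.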

In assay [9] the test system is green foxtail (Setaria viridis (L.) P. Beauv.). Described as above. Particulars: foliage treatment, 1,000 g active ingredient per 1 hectare, 14th day after application, greenhouse. The method in brief:
as §3

Assay [10] relates to slender amaranth (Amaranthus viridis L.). Described as above. Particulars: foliage treatment, 1,000 g active ingredient per 1 hectare, 14th day after application, greenhouse. The gist of the method:
as §3

Assay [11] concerns velvetleaf (Abutilon theophrasti medicus). The assay is described as above. To be noted: foliage treatment, 1,000 g active ingredient per 1 hectare, 14th day after application, greenhouse. The method in brief: as §3

In the case of `CCN(C(=O)OC)n1c(C(F)(F)F)ccc(C(=O)C2=C(O)CCCC2=O)c1=O` [I-191], in assay [1], the “herbicidal effect, Scirpus juncoides Roxb.” value was 5 (90% or more of herbicidal effect and crop phytotoxicity). In addition, the “herbicidal effect, Echinochloa oryzicola Vasing” value in assay [2] was 5 (90% or more of herbicidal effect and crop phytotoxicity). Also, the “herbicidal effect, Monochoria vaginalis (Burm. f.) C. Presl” value (shortened to “herbicidal effect, Monochoria vaginalis”) in [3] is 5 (90% or more of herbicidal effect and crop phytotoxicity). For the same compound, the “herbicidal effect (index), Barnyardgrass” value in assay [4] was 5 (90% or more of herbicidal effect and crop phytotoxicity). Also, the “herbicidal effect (index), Green Foxtail” value in assay [5] is 5 (90% or more of herbicidal effect and crop phytotoxicity). Also, the “herbicidal effect (index), Slender Amaranth” value in [6] was 5 (90% or more of herbicidal effect and crop phytotoxicity). In addition, in [7], the “herbicidal effect (index), Velvetleaf” value is 5 (90% or more of herbicidal effect and crop phytotoxicity). In assay [8], the “herbicidal effect, Barnyardgrass” value is 5 (90% or more of herbicidal effect and crop phytotoxicity). In addition, in assay [9], the “herbicidal effect, Green Foxtail” value is 5 (90% or more of herbicidal effect and crop phytotoxicity). Moreover, in assay [10], the “herbicidal effect, Slender Amaranth” value was 5 (90% or more of herbicidal effect and crop phytotoxicity). For the same compound, in assay [11], the “herbicidal effect, Velvetleaf” value was 5 (90% or more of herbicidal effect and crop phytotoxicity).

For the compound `CCCn1c(C(F)(F)F)c(C)cc(C(=O)C2=C(O)CCCC2=O)c1=O` [I-215], the “herbicidal effect, Scirpus juncoides Roxb.” value in assay [1] is 5 (90% or more of herbicidal effect and crop phytotoxicity). Also, the “herbicidal effect, Echinochloa oryzicola Vasing” value in assay [2] is 5 (90% or more of herbicidal effect and crop phytotoxicity). Further, the “herbicidal effect, Monochoria vaginalis” value in [3] is 5 (90% or more of herbicidal effect and crop phytotoxicity). In addition, the “herbicidal effect (index), Barnyardgrass” value in assay [4] is 5 (90% or more of herbicidal effect and crop phytotoxicity). Further, the “herbicidal effect (index), Green Foxtail” value in assay [5] is 5 (90% or more of herbicidal effect and crop phytotoxicity). For the same compound, in [6], the “herbicidal effect (index), Slender Amaranth” value was 5 (90% or more of herbicidal effect and crop phytotoxicity). The “herbicidal effect (index), Velvetleaf” value in assay [7] was 5 (90% or more of herbicidal effect and crop phytotoxicity). The “herbicidal effect, Barnyardgrass” value in assay [8] is 5 (90% or more of herbicidal effect and crop phytotoxicity). In addition, the “herbicidal effect, Green Foxtail” value in assay [9] was 5 (90% or more of herbicidal effect and crop phytotoxicity). In addition, the “herbicidal effect, Slender Amaranth” value in assay [10] is 5 (90% or more of herbicidal effect and crop phytotoxicity). Besides, in [11], the “herbicidal effect, Velvetleaf” value was 5 (90% or more of herbicidal effect and crop phytotoxicity).

Take `Cn1c(C(F)F)ccc(C(=O)C2=C(O)CCCC2=O)c1=O` [I-221]: the “herbicidal effect, Scirpus juncoides Roxb.” value in [1] is 5 (90% or more of herbicidal effect and crop phytotoxicity). Further, the “herbicidal effect, Echinochloa oryzicola Vasing” value in assay [2] is 5 (90% or more of herbicidal effect and crop phytotoxicity). For the same compound, in [3], the “herbicidal effect, Monochoria vaginalis” value is 5 (90% or more of herbicidal effect and crop phytotoxicity). Besides, the “herbicidal effect (index), Barnyardgrass” value in assay [4] was 5 (90% or more of herbicidal effect and crop phytotoxicity). Besides, the “herbicidal effect (index), Green Foxtail” value in assay [5] is 3 (50 to less than 70% of herbicidal effect and crop phytotoxicity). In assay [6], the “herbicidal effect (index), Slender Amaranth” value was 5 (90% or more of herbicidal effect and crop phytotoxicity). Moreover, the “herbicidal effect (index), Velvetleaf” value in assay [7] was 5 (90% or more of herbicidal effect and crop phytotoxicity). Also, the “herbicidal effect, Barnyardgrass” value in [8] is 5 (90% or more of herbicidal effect and crop phytotoxicity). Besides, the “herbicidal effect, Green Foxtail” value in assay [9] is 4 (70 to less than 90% of herbicidal effect and crop phytotoxicity). In addition, the “herbicidal effect, Slender Amaranth” value in assay [10] was 5 (90% or more of herbicidal effect and crop phytotoxicity). In addition, the “herbicidal effect, Velvetleaf” value in [11] was 5 (90% or more of herbicidal effect and crop phytotoxicity).

As to `O=C1CCCC(O)=C1C(=O)c1ccc(C(F)F)n(-c2ccccc2)c1=O` [I-223], the “herbicidal effect, Scirpus juncoides Roxb.” value in assay [1] was 5 (90% or more of herbicidal effect and crop phytotoxicity). In addition, in assay [2], the “herbicidal effect, Echinochloa oryzicola Vasing” value is 5 (90% or more of herbicidal effect and crop phytotoxicity). Also, the “herbicidal effect, Monochoria vaginalis” value in assay [3] is 5 (90% or more of herbicidal effect and crop phytotoxicity). Also, in assay [4], the “herbicidal effect (index), Barnyardgrass” value was 5 (90% or more of herbicidal effect and crop phytotoxicity). The “herbicidal effect (index), Green Foxtail” value in assay [5] was 5 (90% or more of herbicidal effect and crop phytotoxicity). In addition, the “herbicidal effect (index), Slender Amaranth” value in assay [6] was 5 (90% or more of herbicidal effect and crop phytotoxicity). The “herbicidal effect (index), Velvetleaf” value in assay [7] was 5 (90% or more of herbicidal effect and crop phytotoxicity). Further, the “herbicidal effect, Barnyardgrass” value in assay [8] is 5 (90% or more of herbicidal effect and crop phytotoxicity). The “herbicidal effect, Green Foxtail” value in assay [9] was 5 (90% or more of herbicidal effect and crop phytotoxicity). In addition, the “herbicidal effect, Slender Amaranth” value in assay [10] is 5 (90% or more of herbicidal effect and crop phytotoxicity). For the same compound, in assay [11], the “herbicidal effect, Velvetleaf” value was 5 (90% or more of herbicidal effect and crop phytotoxicity).

As to `O=C1CCCC(O)=C1C(=O)c1cc(Br)c(C(F)F)n(-c2ccccc2)c1=O` [I-224], the “herbicidal effect, Scirpus juncoides Roxb.” value in [1] was 5 (90% or more of herbicidal effect and crop phytotoxicity). Also, in assay [2], the “herbicidal effect, Echinochloa oryzicola Vasing” value is 5 (90% or more of herbicidal effect and crop phytotoxicity). For the same compound, the “herbicidal effect, Monochoria vaginalis” value in assay [3] was 5 (90% or more of herbicidal effect and crop phytotoxicity). Besides, in assay [4], the “herbicidal effect (index), Barnyardgrass” value is 5 (90% or more of herbicidal effect and crop phytotoxicity). Besides, the “herbicidal effect (index), Green Foxtail” value in assay [5] was 5 (90% or more of herbicidal effect and crop phytotoxicity). In addition, the “herbicidal effect (index), Slender Amaranth” value in assay [6] is 5 (90% or more of herbicidal effect and crop phytotoxicity). In addition, the “herbicidal effect (index), Velvetleaf” value in assay [7] was 5 (90% or more of herbicidal effect and crop phytotoxicity). Also, the “herbicidal effect, Barnyardgrass” value in assay [8] was 5 (90% or more of herbicidal effect and crop phytotoxicity). Moreover, the “herbicidal effect, Green Foxtail” value in assay [9] was 5 (90% or more of herbicidal effect and crop phytotoxicity). Further, the “herbicidal effect, Slender Amaranth” value in [10] was 5 (90% or more of herbicidal effect and crop phytotoxicity). Moreover, the “herbicidal effect, Velvetleaf” value in assay [11] is 5 (90% or more of herbicidal effect and crop phytotoxicity).

`Cn1c(C(F)(F)C(F)(F)F)ccc(C(=O)C2=C(O)CCCC2=O)c1=O` [I-227]: in assay [1], the “herbicidal effect, Scirpus juncoides Roxb.” value is 5 (90% or more of herbicidal effect and crop phytotoxicity). Further, the “herbicidal effect, Echinochloa oryzicola Vasing” value in [2] is 5 (90% or more of herbicidal effect and crop phytotoxicity). Further, the “herbicidal effect, Monochoria vaginalis” value in assay [3] is 5 (90% or more of herbicidal effect and crop phytotoxicity). In addition, the “herbicidal effect (index), Barnyardgrass” value in assay [4] is 4 (70 to less than 90% of herbicidal effect and crop phytotoxicity). Besides, the “herbicidal effect (index), Green Foxtail” value in assay [5] was 5 (90% or more of herbicidal effect and crop phytotoxicity). Moreover, the “herbicidal effect (index), Slender Amaranth” value in [6] was 5 (90% or more of herbicidal effect and crop phytotoxicity). For the same compound, in assay [7], the “herbicidal effect (index), Velvetleaf” value is 5 (90% or more of herbicidal effect and crop phytotoxicity). Further, the “herbicidal effect, Barnyardgrass” value in assay [8] was 3 (50 to less than 70% of herbicidal effect and crop phytotoxicity). The “herbicidal effect, Green Foxtail” value in assay [9] was 5 (90% or more of herbicidal effect and crop phytotoxicity). Further, in assay [10], the “herbicidal effect, Slender Amaranth” value is 5 (90% or more of herbicidal effect and crop phytotoxicity). For the same compound, the “herbicidal effect, Velvetleaf” value in assay [11] was 5 (90% or more of herbicidal effect and crop phytotoxicity).

The record behind these values is patent publication US8076487B2, “Pyridone derivative and herbicide” (Kumiai Chemical Industry Co., Ltd., priority 2006, dated 2011).
